Laboratory results as given in US12692247B2, “Phenyl- and pyridopyrazole derivatives as inhibitors of DDR1” (Redx Pharma Limited, priority 2021, dated 2026).

Legend:
Recombinant human DDR2 = biological target: T1, Recombinant human DDR2 (Homo sapiens, UniProt Q16832); assay: LanthaScreen Eu Kinase Binding Assay, DDR2; conditions: recombinant human DDR2 (1.75 nM; aa427-855, GST tag), Kinase Tracer 178 10 nM, time-resolved fluorescence, at least two independent replicates; read-out: DDR2 pIC50 (converted)
T1 construct: DDR2 (1.75 nM; aa427-855 containing a GST tag)
T1 sequence (Q16832 427-855): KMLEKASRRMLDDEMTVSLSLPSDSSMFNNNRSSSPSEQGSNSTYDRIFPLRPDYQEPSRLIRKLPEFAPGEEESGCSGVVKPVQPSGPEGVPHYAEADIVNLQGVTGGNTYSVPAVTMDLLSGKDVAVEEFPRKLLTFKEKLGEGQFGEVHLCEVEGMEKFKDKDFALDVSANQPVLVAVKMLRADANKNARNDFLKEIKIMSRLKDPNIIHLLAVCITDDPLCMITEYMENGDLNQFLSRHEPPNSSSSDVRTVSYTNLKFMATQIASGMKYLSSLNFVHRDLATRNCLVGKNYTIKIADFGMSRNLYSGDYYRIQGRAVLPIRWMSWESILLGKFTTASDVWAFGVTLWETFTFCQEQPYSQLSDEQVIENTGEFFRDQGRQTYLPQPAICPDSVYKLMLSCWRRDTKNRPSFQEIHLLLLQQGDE
Method: (§1) DDR1 and DDR2 Biochemical Assay Method
(§2) The capacity of compounds to bind to DDR1 and DDR2 was quantified using a LanthaScreen Eu Kinase Binding Assay. Recombinant human DDR1 (2.5 nM; aa440-876 containing a GST tag) and DDR2 (1.75 nM; aa427-855 containing a GST tag) were diluted in assay buffer (50 mM HEPES pH7.3, 10 mM MgCl2, 1 mM EGTA and 0.01% Tween) with various concentrations of compound in a 384-well plate and a volume of 5 uL. After a 30-minute incubation at room temperature, 2.5 uL of Eu-anti GST antibody (diluted to 1 nM in assay buffer) plus Kinase Tracer 178 (diluted in assay buffer to 5 nM for DDR1 and 10 nM for DDR2) were added to the plate. Following 60-minute incubation at room temperature, time-resolved fluorescence was measured on a BMG Labtech PHERAstar plate reader. DMSO (1%) and reference compound (1 μM) were used to generate the Max and Min assay signals, respectively. Data was analysed using a four-parameter logistic model to calculate IC50 values, with at least two independent replicates were performed for each compound.

Recombinant human DDR1 = biological target: T2, Recombinant human DDR1 (Homo sapiens, UniProt Q08345); assay: LanthaScreen Eu Kinase Binding Assay, DDR1; conditions: recombinant human DDR1 (2.5 nM; aa440-876, GST tag), Kinase Tracer 178 5 nM, time-resolved fluorescence, at least two independent replicates; read-out: DDR1 pIC50 (converted)
T2 construct: Recombinant human DDR1 (2.5 nM; aa440-876 containing a GST tag)
Method: as §1, §2

T2 sequence (Q08345 440-876 isoform Q08345-2): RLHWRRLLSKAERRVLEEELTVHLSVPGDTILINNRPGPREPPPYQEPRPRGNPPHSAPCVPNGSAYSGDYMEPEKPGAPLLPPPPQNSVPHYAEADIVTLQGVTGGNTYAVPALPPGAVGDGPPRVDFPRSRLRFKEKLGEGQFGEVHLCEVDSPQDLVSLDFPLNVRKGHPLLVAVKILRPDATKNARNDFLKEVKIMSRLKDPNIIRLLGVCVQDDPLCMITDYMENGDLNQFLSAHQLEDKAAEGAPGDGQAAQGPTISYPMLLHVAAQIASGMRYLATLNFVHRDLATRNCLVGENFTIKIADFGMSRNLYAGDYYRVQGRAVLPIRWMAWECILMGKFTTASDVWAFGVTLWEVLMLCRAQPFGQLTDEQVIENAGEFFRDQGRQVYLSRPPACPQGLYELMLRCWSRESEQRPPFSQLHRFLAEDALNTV

IC50 (Recombinant human DDR2) | IC50 (Recombinant human DDR1) | Structure (SMILES)
≥ 1000 nM | ≥ 1000 nM | CC(C(=O)NCC(F)(F)F)n1ccc2cccc(Nc3ccc4c(cnn4C)c3)c2c1=O (stereo not drawn) [Example 51, 2-[8-[(1-methylindazol-5-yl)amino]-1-oxo-2-isoquinolyl]-N-(2,2,2-trifluoroethyl) propanamide]
100 to 1000 nM | 10 to 100 nM | Cn1ncc2cc(Nc3cccc4ccn(CC(=O)NC5(C(F)(F)F)CCCC5)c(=O)c34)ccc21 [Example 42, 2-[8-[(1-methylindazol-5-yl)amino]-1-oxo-2-isoquinolyl]-N-[1-(trifluoromethyl)cyclopentyl]acetamide]
100 to 1000 nM | 100 to 1000 nM | Cc1noc(C)c1NC(=O)Cn1ccc2cccc(Nc3ccc4c(cnn4C)c3)c2c1=O [Example 69, N-(3,5-dimethylisoxazol-4-yl)-2-[8-[(1-methylindazol-5-yl)amino]-1-oxo-2-isoquinolyl]acetamide]
10 to 100 nM | < 10 nM | Cn1ncc2cc(Nc3cccc4ccn(CC(=O)Nc5cccc(C(C)(C)O)c5)c(=O)c34)ccc21 [Example 38, N-[3-(1-hydroxy-1-methyl-ethyl)phenyl]-2-[8-[(1-methylindazol-5-yl)amino]-1-oxo-2-isoquinolyl]acetamide]
10 to 100 nM | < 10 nM | Cn1ncc2cc(Nc3cccc4ccn(CC(=O)N5CCCC[C@H]5C(F)(F)F)c(=O)c34)ccc21 [Example 61, 8-[(1-methylindazol-5-yl)amino]-2-[2-oxo-2-[(2S)-2-(trifluoromethyl)-1-piperidyl]ethyl]isoquinolin-1-one]
10 to 100 nM | < 10 nM | Cn1ncc2cc(Nc3cccc4ccn(CC(=O)N5CCC[C@H]5C(F)(F)F)c(=O)c34)ccc21 [Example 49]
10 to 100 nM | 10 to 100 nM | CN(c1ccc2c(cnn2C)c1)c1cccc2ccn(CC(=O)Nc3cnoc3)c(=O)c12 [Example 140, N-isoxazol-4-yl-2-[8-[methyl-(1-methylindazol-5-yl)amino]-1-oxo-2-isoquinolyl]acetamide]
≥ 1000 nM | 100 to 1000 nM | Cn1ncc2cc(Nc3cccc4ccn(CC(=O)NCC(F)(F)F)c(=O)c34)cc(C(N)=O)c21 [Example 125, 1-Methyl-5-[[1-oxo-2-[2-oxo-2-(2,2,2-trifluoroethylamino)ethyl]-8-isoquinolyl]amino]indazole-7-carboxamide]
≥ 1000 nM | 10 to 100 nM | O=C(Cn1ccc2cccc(Nc3ccc4[nH]ncc4c3)c2c1=O)NCC(F)(F)F [Example 1, 2-[8-(1H-indazol-5-ylamino)-1-oxo-2-isoquinolyl]-N-(2,2,2-trifluoroethyl)acetamide]
10 to 100 nM | < 10 nM | Cn1ncc2cc(Nc3cccc4ccn(CC(=O)Nc5cccc(C(C)(C)N)c5)c(=O)c34)ccc21 [Example 103]
≥ 1000 nM | ≥ 1000 nM | Cn1ccnc1NC(=O)Cn1ccc2cccc(Nc3ccc4c(cnn4C)c3)c2c1=O [Example 77, N-(1-methylimidazol-2-yl)-2-[8-[(1-methylindazol-5-yl)amino]-1-oxo-2-isoquinolyl]acetamide]
≥ 1000 nM | 100 to 1000 nM | CC(=O)C1CCN(C(=O)Cn2ccc3cccc(Nc4ccc5c(cnn5C)c4)c3c2=O)CC1 [Example 80, 2-[2-(4-acetyl-1-piperidyl)-2-oxo-ethyl]-8-[(1-methylindazol-5-yl)amino]isoquinolin-1-one]
≥ 1000 nM | ≥ 1000 nM | Cc1ccc(Nc2ccc3c(cnn3C)c2)c2c(=O)n(CC(=O)NCC(F)(F)F)ccc12 [Example 8, 2-[5-methyl-8-[(1-methylindazol-5-yl)amino]-1-oxo-2-isoquinolyl]-N-(2,2,2-trifluoroethyl)acetamide]
100 to 1000 nM | 10 to 100 nM | Cn1ncc2cc(Nc3cccc4ccn(CC(=O)NC(c5ccccc5)C(F)(F)F)c(=O)c34)ccc21 (stereo not drawn) [Example 35, 2-[8-[(1-methylindazol-5-yl)amino]-1-oxo-2-isoquinolyl]-N-(2,2,2-trifluoro-1-phenyl-ethyl)acetamide]
100 to 1000 nM | 10 to 100 nM | Cn1nccc1NC(=O)Cn1ccc2cccc(Nc3ccc4c(cnn4C)c3)c2c1=O [Example 36, 2-[8-[(1-methylindazol-5-yl)amino]-1-oxo-2-isoquinolyl]-N-(2-methylpyrazol-3-yl)acetamide]
≥ 1000 nM | ≥ 1000 nM | Cn1ncc2cc(Nc3cccc4ccn(CC(=O)NC(CO)C(F)(F)F)c(=O)c34)ccc21 (stereo not drawn) [Example 50, 2-[8-[(1-methylindazol-5-yl)amino]-1-oxo-2-isoquinolyl]-N-[2,2,2-trifluoro-1-(hydroxymethyl)ethyl)acetamide]
100 to 1000 nM | 10 to 100 nM | Cn1ncc2cc(Nc3cccc4ccn(CC(=O)Nc5cnco5)c(=O)c34)ccc21 [Example 95, 2-{8-[(1-methyl-1H-indazol-5-yl)amino]-1-oxo-1,2-dihydroisoquinolin-2-yl}-N-(1,3-oxazol-5-yl)acetamide]
10 to 100 nM | 10 to 100 nM | Cn1ncc2cc(Nc3cccc4ccn(CC(=O)Nc5cncc(C(F)(F)F)c5)c(=O)c34)cnc21 [Example 99, 2-[8-({1-methyl-1H-pyrazolo[3,4-b]pyridine-5-5-yl}amino)1-oxo-1,2-dihydroisoquinolin-2-yl]-N-[5-(trifluoromethyl)pyridine-3-yl]acetamide]
≥ 1000 nM | 10 to 100 nM | Cn1ncc2cc(Nc3cccc4ccn(CC(=O)Nc5ccccc5)c(=O)c34)ccc21 [Example 39, 2-[8-[(1-methylindazol-5-yl)amino]-1-oxo-2-isoquinolyl]-N-phenyl-acetamide]
10 to 100 nM | 10 to 100 nM | CN1CCN(Cc2ccc(NC(=O)Cn3ccc4cccc(Nc5ccc6c(cnn6C)c5)c4c3=O)cc2C(F)(F)F)CC1 [Example 76]
100 to 1000 nM | 10 to 100 nM | Cn1ncc2cc(Nc3cccc4ccn(CC(=O)NCC(F)F)c(=O)c34)ccc21 [Example 10]
≥ 1000 nM | 100 to 1000 nM | Cn1ncc2cc(Nc3cccc4ccn(CC(=O)NC5CC5)c(=O)c34)ccc21 [Example 17, N-cyclopropyl-2-[8-[(1-methylindazol-5-yl)amino]-1-oxo-2-isoquinolyl]acetamide]
≥ 1000 nM | 100 to 1000 nM | Cn1cc(NC(=O)Cn2ccc3cccc(Nc4ccc5c(cnn5C)c4)c3c2=O)cn1 [Example 41, 2-[8-[(1-methylindazol-5-yl)amino]-1-oxo-2-isoquinolyl]-N-(1-methylpyrazol-4-yl)acetamide]
≥ 1000 nM | 10 to 100 nM | O=C(Cn1ccc2cccc(Nc3ccc4cn[nH]c4c3)c2c1=O)NCC(F)(F)F [Example 2]
≥ 1000 nM | 100 to 1000 nM | Cn1ncc2cc(Nc3cccc4ccn(CC(=O)N5CCCC5)c(=O)c34)ccc21 [Example 94, 8-[(1-methyl-1H-indazol-5-yl)amino]-2-[2-oxo-2-(pyrrolidin-1-yl)ethyl]-1,2-dihydroisoquinolin-1-one]
100 to 1000 nM | 10 to 100 nM | C[C@H](NC(=O)Cn1ccc2cccc(N(C)c3ccc4c(cnn4C)c3)c2c1=O)C(F)(F)F [Example 143, 2-[8-[methyl-(1-methylindazol-5-yl)amino]-1-oxo-2-isoquinolyl]-N-[(1S)-2,2,2-trifluoro-1-methyl-ethyl]acetamide]
100 to 1000 nM | 10 to 100 nM | Cn1ncc2cc(Nc3cccc4ccn(CC(=O)Nc5ccc(C(F)(F)F)nc5)c(=O)c34)ccc21 [Example 59, 2-[8-[(1-methylindazol-5-yl)amino]-1-oxo-2-isoquinolyl]-N-[6-(trifluoromethyl)-3-pyridyl]acetamide]
10 to 100 nM | < 10 nM | O=C(Cn1ccc2cccc(Nc3cc(Cl)c4[nH]ncc4c3)c2c1=O)NCC(F)(F)F [Example 52, 2-[8-[(7-chloro-1H-indazol-5-yl)amino]-1-oxo-2-isoquinolyl]-N-(2,2,2-trifluoroethyl) acetamide]
100 to 1000 nM | 10 to 100 nM | CN(C)Cc1cccc(NC(=O)Cn2ccc3cccc(Nc4ccc5c(cnn5C)c4)c3c2=O)c1 [Example 104, N-{3-[(dimethylamino)methyl]phenyl}-2-{8-[(1-methyl-1H-indazol-5-yl)amino]-1-oxo-1,2-dihydroisoquinolin-2-yl}acetamide]
100 to 1000 nM | 10 to 100 nM | CC(C)CNC(=O)Cn1ccc2cccc(Nc3ccc4c(cnn4C)c3)c2c1=O [Example 9, N-isobutyl-2-[8-[(1-methylindazol-5-yl)amino]-1-oxo-2-isoquinolyl]acetamide]
